From patent US20230279020A9, “CARM1 INHIBITORS AND USES THEREOF” (Epizyme, Inc., priority 2013, published 2023) come the findings set out here.

Bounds are passed on as bounds.

The assay deals with Human CARM1 (PRMT4) (Homo sapiens (Human), UniProt Q86X55). The assay is described as follows: CARM1 enzyme assay on peptide substrate (3H-SAM Flashplate). Particulars: Biochemical potencies, classification codes; read-out: Biochem IC50.
Chain of Human CARM1 (PRMT4) (Q86X55 other isoform, or with tags, fused parts or gaps isoform Q86X55-1): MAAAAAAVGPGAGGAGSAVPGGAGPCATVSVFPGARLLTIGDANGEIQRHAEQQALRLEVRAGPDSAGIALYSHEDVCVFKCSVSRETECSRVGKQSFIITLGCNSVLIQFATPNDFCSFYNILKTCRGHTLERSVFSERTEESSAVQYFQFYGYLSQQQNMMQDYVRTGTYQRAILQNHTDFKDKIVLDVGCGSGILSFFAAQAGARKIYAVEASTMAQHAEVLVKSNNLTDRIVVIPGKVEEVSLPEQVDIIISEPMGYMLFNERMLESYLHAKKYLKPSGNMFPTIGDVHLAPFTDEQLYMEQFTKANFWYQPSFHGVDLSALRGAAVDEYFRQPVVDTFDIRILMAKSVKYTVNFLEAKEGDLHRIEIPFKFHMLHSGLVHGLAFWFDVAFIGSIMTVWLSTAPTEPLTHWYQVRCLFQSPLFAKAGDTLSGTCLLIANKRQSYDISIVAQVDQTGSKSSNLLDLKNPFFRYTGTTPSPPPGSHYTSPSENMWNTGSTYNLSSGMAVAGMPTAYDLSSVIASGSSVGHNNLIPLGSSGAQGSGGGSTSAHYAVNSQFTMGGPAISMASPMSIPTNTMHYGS
As for `CNC[C@@H](O)COc1ccc(Cl)c(-c2nc(N[C@H]3CCO[C@H](C)C3)c(C)c(-c3c(C)noc3C)n2)c1` [Example 196-3], the IC50 is under 0.1 µM.
In the case of `CCS(=O)(=O)N1CCC(Nc2nc(-c3cccc(OCC(O)CNC)c3)nc(-c3c(C)noc3C)c2C)C1` (stereo not shown) [Example 197-1a] it was under 0.1 µM; in that of `CNC[C@@H](O)COc1ccc(Cl)c(-c2nc(N[C@H]3CCO[C@H](C)C3)c(Cl)c(-c3c(C)noc3C)n2)c1` [Example 197-3], under 0.1 µM.
The result for `CNCC(O)COc1cccc(-c2nc(NC3CCCN(S(C)(=O)=O)C3)c(C)c(-c3c(C)noc3C)n2)c1` (stereo not shown) [Example 198-1a] reads under 0.1 µM; that for `CNC[C@@H](O)COc1ccc(Cl)c(-c2nc(N[C@H]3CO[C@H](C)C3)c(C)c(-c3c(C)noc3C)n2)c1` [Example 198-3], under 0.1 µM.
On to `CNCC(O)COc1cccc(-c2nc(-c3c(C)noc3C)c(C)c(N3C[C@H](C)O[C@@H](C)C3)n2)c1` (stereo partly shown) [Example 199-1a], for which the 50% inhibitory concentration (IC50) was under 0.1 µM.
`CNC[C@@H](O)COc1ccc(Cl)c(-c2nc(-c3c(C)noc3C)c(C)c(N3CCc4ncccc43)n2)c1` [Example 199-3]: the half-inhibitory concentration (IC50) is under 0.1 µM.
In the case of `CNCC(O)COc1cccc(-c2nc(-c3c(C)noc3C)c(C)c(N3CCOC(C)(C)C3)n2)c1` (stereo not shown) [Example 200-1a] it was under 0.1 µM; in that of `CNC[C@@H](O)COc1ccc(C(F)(F)F)c(-c2nc(NC3CCOCC3)c(C)c(-c3c(C)noc3C)n2)c1` [Example 200-3], under 0.1 µM; in that of `CNCC(O)COc1cccc(-c2nc(NC3CCCN(C(=O)OC)C3)c(C)c(-c3c(C)noc3C)n2)c1` (stereo not shown) [Example 201-1a], under 0.1 µM.
The result for `CNC[C@@H](O)COc1ccc(Cl)c(-c2nc(N[C@H]3CO[C@H](C)C3)c(Cl)c(-c3c(C)noc3C)n2)c1` [Example 201-3] reads under 0.1 µM; that for `CNCC(O)COc1cccc(-c2nc(NC3CCN(C(=O)OC)CC3)c(Cl)c(-c3c(C)noc3C)n2)c1` (stereo not shown) [Example 202-1a], under 0.1 µM.
For the molecule `CNC[C@@H](O)COc1ccc(Cl)c(-c2nc(N[C@H]3CN(C(=O)OC)C[C@@H]3F)c(C)c(-c3c(C)noc3C)n2)c1` [Example 202-3], the IC50 is under 0.1 µM.
On to `CNCC(O)COc1cccc(-c2nc(NC3CCCN(CC(F)F)C3)c(C)c(-c3c(C)noc3C)n2)c1` (stereo not shown) [Example 203-1a], for which the IC50 is under 0.1 µM.
Turning to `CNC[C@@H](O)COc1ccc(Cl)c(-c2nc(N[C@H]3CN(C4CC4)C[C@@H]3F)c(C)c(-c3c(C)noc3C)n2)c1` [Example 203-3], the IC50 is under 0.1 µM.
For the molecule `CCS(=O)(=O)N1CCCC(Nc2nc(-c3cccc(OCC(O)CNC)c3)nc(-c3c(C)noc3C)c2C)C1` (stereo not shown) [Example 204-1a], the half-maximal inhibitory concentration (IC50) was under 0.1 µM.
In the case of `CNC[C@@H](O)COc1ccc(C(F)(F)F)c(-c2nc(NC3CCN(C(=O)OC)CC3)c(C)c(-c3c(C)noc3C)n2)c1` [Example 204-3] it was under 0.1 µM; in that of `CNCC(O)COc1cccc(-c2nc(NCC3CCN(CC(F)F)CC3)c(C)c(-c3c(C)noc3C)n2)c1` (stereo not shown) [Example 205-1a], under 0.1 µM; in that of `CNC[C@@H](O)COc1ccc(Cl)c(-c2nc(-c3c(C)noc3C)c(C)c(C3CC3)n2)c1` [Example 205-3], under 0.1 µM.
With `CCOC(=O)N1CCOC[C@@H]1CNc1nc(-c2cccc(OCC(O)CNC)c2)nc(-c2c(C)noc2C)c1C` (stereo partly shown) [Example 206-1a], the IC50 was under 0.1 µM.
Turning to `CNC[C@@H](O)COc1ccc(Cl)c(-c2nc(-c3c(C)noc3C)c(C)c(N3CC(F)C3)n2)c1` [Example 206-3], the concentration for half-maximal inhibition (IC50) is under 0.1 µM.
As for `CNCC(O)COc1cccc(-c2nc(NC3CCNC[C@H]3F)c(C)c(-c3c(C)noc3C)n2)c1` (stereo partly shown) [Example 207-1a], the IC50 is under 0.1 µM.
In the case of `CNC[C@@H](O)COc1ccc(Cl)c(-c2nc(-c3c(C)noc3C)c(C)c(N3CCC3C)n2)c1` (stereo partly shown) [Example 207-3], the IC50 was under 0.1 µM.
The result for `CNCC(O)COc1cccc(-c2nc(NC3CCN(C(=O)OC(C)(C)C)C[C@H]3F)c(C)c(-c3c(C)noc3C)n2)c1` (stereo partly shown) [Example 208-1a] reads under 0.1 µM; that for `CNC[C@@H](O)COc1ccc(Cl)c(-c2nc(N[C@H]3CCN(C)C[C@H]3F)c(Cl)c(-c3c(C)noc3C)n2)c1` [Example 208-3], under 0.1 µM; that for `CNCC(O)COc1cccc(-c2nc(-c3c(C)noc3C)c(C)c(N3CCO[C@@H](C)C3)n2)c1` (stereo partly shown) [Example 209-1a], under 0.1 µM.
In the case of `CNC[C@@H](O)COc1ccc(Cl)c(-c2nc(N[C@H]3COC[C@@H]3O)c(C)c(-c3c(C)noc3C)n2)c1` [Example 209-3], the IC50 was under 0.1 µM.
As for `CNCC(O)COc1cccc(-c2nc(Nc3cn(C)cn3)c(C)c(-c3c(C)noc3C)n2)c1` (stereo not shown) [Example 210-1a], the IC50 was under 0.1 µM.
In the case of `CNC[C@@H](O)COc1ccc(Cl)c(-c2nc(N[C@@H]3CCN(C)C[C@@H]3F)c(Cl)c(-c3c(C)noc3C)n2)c1` [Example 210-3] it was under 0.1 µM; in that of `CNCC(O)COc1cccc(-c2nc(-c3c(C)noc3C)c(C)c(N3CCO[C@H](C)C3)n2)c1` (stereo partly shown) [Example 211-1a], under 0.1 µM; in that of `CNC[C@@H](O)COc1ccc(Cl)c(-c2nc(N[C@@H]3CCN(C4CC4)C[C@@H]3F)c(Cl)c(-c3c(C)noc3C)n2)c1` [Example 211-3], under 0.1 µM.
The result for `CNCC(O)COc1cccc(-c2nc(NC3C4COCC43)c(C)c(-c3c(C)noc3C)n2)c1` (stereo not shown) [Example 212-1a] reads under 0.1 µM; that for `CNC[C@@H](O)COc1ccc(Cl)c(-c2nc(N[C@H]3CC[C@@H](OC)C3)c(C)c(-c3c(C)noc3C)n2)c1` [Example 212-3], under 0.1 µM; that for `CNC[C@@H](O)COc1ccc(Cl)c(-c2nc(-c3c(C)noc3C)c(C)c(N(C)[C@H]3CC[C@@H](OC)C3)n2)c1` [Example 213-3], under 0.1 µM.
In the case of `CNC[C@@H](O)COc1ccc(Cl)c(-c2nc(-c3c(C)noc3C)c(Cl)c(N3Cc4ccncc4C3)n2)c1` [Example 214-3] it was under 0.1 µM; in that of `CNCC(O)COc1cccc(-c2nc(Nc3nncs3)c(C)c(-c3c(C)noc3C)n2)c1` (stereo not shown) [Example 215-1a], under 0.1 µM; in that of `CNC[C@@H](O)COc1ccc(Cl)c(-c2nc(NC[C@H]3CCCO3)c(Cl)c(-c3c(C)noc3C)n2)c1` [Example 215-3], under 0.1 µM.
On to `CNCC(O)COc1cccc(-c2nc(NC3CCCN(C(=O)N(C)C)C3)c(C)c(-c3c(C)noc3C)n2)c1` (stereo not shown) [Example 216-1a], for which the IC50 was under 0.1 µM.
In the case of `CNC[C@@H](O)COc1ccc(Cl)c(-c2nc(N[C@H]3C[C@@H](OC)C3)c(Cl)c(-c3c(C)noc3C)n2)c1` [Example 216-3] it was under 0.1 µM.
Regarding `CNCC(O)COc1cccc(-c2nc(Nc3nnc(C4CC4)s3)c(C)c(-c3c(C)noc3C)n2)c1` (stereo not shown) [Example 217-1a], the IC50 is under 0.1 µM.
In the case of `CNC[C@@H](O)COc1ccc(Cl)c(-c2nc(N[C@H]3C[C@H](OC)C3)c(Cl)c(-c3c(C)noc3C)n2)c1` [Example 217-3] it was under 0.1 µM; in that of `CNCC(O)COc1cccc(-c2nc(N[C@H]3CCC[C@H]3O)c(C)c(-c3c(C)noc3C)n2)c1` (stereo partly shown) [Example 218-1a], under 0.1 µM; in that of `CNCC(O)COc1ccc(Cl)c(-c2nc(NC3CC4(CC4)C3)c(C)c(-c3c(C)noc3C)n2)c1` (stereo not shown) [Example 218-3], under 0.1 µM.
As to `CNCC(O)COc1cccc(-c2nc(NC3CCC[C@H]3O)c(C)c(-c3c(C)noc3C)n2)c1` (stereo partly shown) [Example 219-1a], the IC50 was under 0.1 µM.
On to `CNC[C@@H](O)COc1ccc(Cl)c(-c2nc(NC3CC(COC)C3)c(C)c(-c3c(C)noc3C)n2)c1` (stereo partly shown) [Example 219-3], for which the half-inhibitory concentration (IC50) is under 0.1 µM.
Consider `CNCC(O)COc1cccc(-c2nc(N[C@@H]3CCOC[C@@H]3OC)c(C)c(-c3c(C)noc3C)n2)c1` (stereo partly shown) [Example 220-1a], for which the IC50 was under 0.1 µM.
The result for `CNC[C@@H](O)COc1ccc(Cl)c(-c2nc(-c3c(C)noc3C)c(C)c(N(C)C3CC(COC)C3)n2)c1` (stereo partly shown) [Example 220-3] reads under 0.1 µM.
In the case of `CNCC(O)COc1cccc(-c2nc(N[C@H]3C[C@H](C(=O)OC)C3)c(C)c(-c3c(C)noc3C)n2)c1` (stereo partly shown) [Example 221-1a] it was under 0.1 µM; in that of `CCOC(=O)N1CCC[C@H]1CCOc1nc(-c2cc(OC[C@H](O)CNC)ccc2Cl)nc(-c2c(C)noc2C)c1C` [Example 221-3], under 0.1 µM.
Regarding `CCO[C@H]1CCC[C@@H]1Nc1nc(-c2cc(OC[C@H](O)CNC)ccc2Cl)nc(-c2c(C)noc2C)c1C` [Example 222-3], the half-inhibitory concentration (IC50) is under 0.1 µM.
Consider `CNC[C@@H](O)COc1ccc(F)c(-c2nc(-c3c(C)noc3C)c(C)c(N3Cc4cnn(C)c4C3)n2)c1` [Example 223-3], for which the half-maximal inhibitory concentration (IC50) was under 0.1 µM.
The result for `CNCC(O)COc1cccc(-c2nc(N[C@@H]3CCNC[C@@H]3F)c(C)c(-c3c(C)noc3C)n2)c1` (stereo partly shown) [Example 224-1a] reads under 0.1 µM.
The result for `CNC[C@@H](O)COc1ccc(Cl)c(-c2nc(-c3c(C)noc3C)c(C)c(N3Cc4[nH]nc(C)c4C3)n2)c1` [Example 224-3] reads under 0.1 µM; that for `CNCC(O)COc1cccc(-c2nc(N[C@@H]3CCN(C(=O)OC)C[C@@H]3F)c(C)c(-c3c(C)noc3C)n2)c1` (stereo partly shown) [Example 225-1a], under 0.1 µM.
Turning to `CNC[C@@H](O)COc1ccc(Cl)c(-c2nc(-c3c(C)noc3C)c(Cl)c(N3Cc4nccnc4C3)n2)c1` [Example 225-3], the IC50 is under 0.1 µM.
In the case of `CCOC(=O)N1CC[C@@H](Nc2nc(-c3cccc(OCC(O)CNC)c3)nc(-c3c(C)noc3C)c2C)[C@@H](F)C1` (stereo partly shown) [Example 226-1a], the IC50 is under 0.1 µM.
In the case of `CNC[C@@H](O)COc1ccc(F)c(-c2nc(-c3c(C)noc3C)c(C)c(N3Cc4nccnc4C3)n2)c1` [Example 226-3] it was under 0.1 µM; in that of `CNCC(O)COc1cccc(-c2nc(N[C@@H]3CCN(C(=O)OC(C)(C)C)C[C@@H]3F)c(C)c(-c3c(C)noc3C)n2)c1` (stereo partly shown) [Example 227-1a], under 0.1 µM.
The result for `CNC[C@@H](O)COc1ccc(F)c(-c2nc(-c3c(C)noc3C)c(C)c(N3CC4(CCOCC4)C3)n2)c1` [Example 227-3] reads under 0.1 µM; that for `CNCC(O)COc1cccc(-c2nc(N[C@@H]3CCN(C(=O)OC)C[C@H]3F)c(C)c(-c3c(C)noc3C)n2)c1` (stereo partly shown) [Example 228-1a], under 0.1 µM; that for `CNC[C@@H](O)COc1ccc(Cl)c(-c2nc(NC[C@@H]3CCOC3)c(C)c(-c3c(C)noc3C)n2)c1` [Example 228-3], under 0.1 µM.
